Tested on: Rif-resistant Mtb isolate (clinical isolate, rpoB mutant S531L)
Type: cell-based, Mycobacterium tuberculosis

SMILES	MIC Rif-resistant Mtb isolate, turbidity read-out
CC[C@H]1/C=C(\C)[C@@H](O)C/C=C/C=C(\CN(C)Cc2nnc(-c3ccccc3)o2)C(=O)O[C@H]([C@@H](C)O)C/C=C(C)/C=C(\C)[C@@H]1O[C@@H]1OC(C)(C)[C@@H](OC(=O)C(C)C)[C@H](O)[C@@H]1O [compound 7]	8 to 16 µg/mL
CC[C@H]1/C=C(\C)[C@@H](O)C/C=C/C=C(\CNc2nc3ccccc3s2)C(=O)O[C@H]([C@@H](C)O)C/C=C(C)/C=C(\C)[C@@H]1O[C@@H]1OC(C)(C)[C@@H](OC(=O)C(C)C)[C@H](O)[C@@H]1O [compound 9]	8 to 16 µg/mL
CC[C@H]1/C=C(\C)[C@@H](O)C/C=C/C=C(\CNc2nc(COc3ccccc3)cs2)C(=O)O[C@H]([C@@H](C)O)C/C=C(C)/C=C(\C)[C@@H]1O[C@@H]1OC(C)(C)[C@@H](OC(=O)C(C)C)[C@H](O)[C@@H]1O [compound 10]	8 to 16 µg/mL
CC[C@H]1/C=C(\C)[C@@H](O)C/C=C/C=C(\CNc2nc(-c3ccccc3)cs2)C(=O)O[C@H]([C@@H](C)O)C/C=C(C)/C=C(\C)[C@@H]1O[C@@H]1OC(C)(C)[C@@H](OC(=O)C(C)C)[C@H](O)[C@@H]1O [compound 13]	8 to 16 µg/mL
CC[C@H]1/C=C(\C)[C@@H](O)C/C=C/C=C(\CNCc2nnc(-c3ccccc3)o2)C(=O)O[C@H]([C@@H](C)O)C/C=C(C)/C=C(\C)[C@@H]1O[C@@H]1OC(C)(C)[C@@H](OC(=O)C(C)C)[C@H](O)[C@@H]1O [compound 16]	4 to 8 µg/mL
CC[C@H]1/C=C(\C)[C@@H](O)C/C=C/C=C(\CNCc2nnc(-c3ccc(OC)c(OC)c3Cl)o2)C(=O)O[C@H]([C@@H](C)O)C/C=C(C)/C=C(\C)[C@@H]1O[C@@H]1OC(C)(C)[C@@H](OC(=O)C(C)C)[C@H](O)[C@@H]1O [compound 18]	4 to 8 µg/mL
CC[C@H]1/C=C(\C)[C@@H](O)C/C=C/C=C(\CNCc2nnc(-c3ccc(C(F)(F)F)cc3)o2)C(=O)O[C@H]([C@@H](C)O)C/C=C(C)/C=C(\C)[C@@H]1O[C@@H]1OC(C)(C)[C@@H](OC(=O)C(C)C)[C@H](O)[C@@H]1O [compound 23]	4-8
CC[C@H]1/C=C(\C)[C@@H](O)C/C=C/C=C(\CNc2ccc(C#N)cc2)C(=O)O[C@H]([C@@H](C)O)C/C=C(C)/C=C(\C)[C@@H]1O[C@@H]1OC(C)(C)[C@@H](OC(=O)C(C)C)[C@H](O)[C@@H]1O [compound 24]	16-32
CC[C@H]1/C=C(\C)[C@@H](O)C/C=C/C=C(\CNc2ccc(C#N)cn2)C(=O)O[C@H]([C@@H](C)O)C/C=C(C)/C=C(\C)[C@@H]1O[C@@H]1OC(C)(C)[C@@H](OC(=O)C(C)C)[C@H](O)[C@@H]1O [compound 25]	16-32

— article PMC11811690 (Angewandte Chemie (International Ed. in English), 2024)
